Assay results reported in patent US9346809B2 (LEO PHARMA A/S, priority 2009, dated 2016).
Like-named read-outs stand apart in the source and are kept apart here.

Assays:
Type in all cases: biochemical
[1] = molecular target: T1, JAK1 (aa 850-1154, catalytic domain, GST-tag) (Homo sapiens, UniProt P23458); assay: JAK kinase assay (HTRF, phosphorylation of TK substrate-biotin), JAK1; settings: ATP at Km (7 μM)
T1 construct: JAK1 (aa 850-1154) and TYK2 (aa 871-1187) are expressed with an N-terminally fused GST-tag; GST (N); purchased Carna Biosciences, Inc; host or cells: baculovirus expression system
T1 sequence (P23458 850-1154): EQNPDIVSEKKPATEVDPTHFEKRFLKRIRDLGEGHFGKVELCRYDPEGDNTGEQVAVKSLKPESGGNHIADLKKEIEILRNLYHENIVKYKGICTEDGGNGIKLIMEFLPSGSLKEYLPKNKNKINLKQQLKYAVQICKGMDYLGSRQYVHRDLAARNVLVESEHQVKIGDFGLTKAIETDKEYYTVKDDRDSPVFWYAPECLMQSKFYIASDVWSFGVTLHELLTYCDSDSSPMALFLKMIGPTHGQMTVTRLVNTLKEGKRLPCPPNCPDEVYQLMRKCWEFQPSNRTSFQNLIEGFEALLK
Description: (§1) Human baculovirus-expressed JAK1, 2, 3 and TYK2 were purchased from Carna Biosciences, Inc. All four purified enzymes contain only the catalytic domain. JAK1 (aa 850-1154) and TYK2 (aa 871-1187) are expressed with an N-terminally fused GST-tag, and JAK2 and JAK3 with an N-terminally fused His-tag.
(§2) Inhibition of phosphorylation of a synthetic peptide was measured in an HTRF-based assay using the TK substrate-Biotin from the Cisbio HTRFKinEASE TK kit. First, 2 μl of TK solution (TK substrate-biotin in kinase buffer [1× enzymatic buffer from HTRFKinEASE TK kit, 1 mM DTT]) is added to a plate containing 1 μl prediluted compound (final assay concentration DMSO: 0.75%). Then, 5 μl kinase-ATP mix (prepared in kinase buffer) is added to the wells and the plates are incubated at RT for 20-30 min. For all four kinases a concentration of ATP that corresponded to the Km for ATP was used. The final concentrations of buffers, substrate, kinase and ATP were: JAK1: 50 mM Hepes buffer pH 7.0, 0.01% BSA, 10 mM MgCl2, 1 mM DTT, 7 μM ATP, 50 nM SEB, 1 μM TK Substrate-Biotin and 5 ng JAK1; JAK2: 50 mM Hepes buffer pH 7.0, 0.01% BSA, 5 mM MgCl2, 1 mM DTT, 4 μM ATP, 1 μM TK Substrate-Biotin and 0.1 ng JAK2; JAK3: 50 mM Hepes buffer pH 7.0, 0.01% BSA, 5 mM MgCl2, 1 mM DTT, 2 μM ATP, 1 μM TK Substrate-Biotin and 0.3 ng JAK3; TYK2: 50 mM Hepes buffer pH 7.0, 0.01% BSA, 5 mM MgCl2, 1 mM DTT, 13 μM ATP, 50 nM SEB, 1 μM TK Substrate-Biotin and 0.8 ng TYK2. Thereafter, the kinase reaction is stopped by adding 4 μl detection mix (final concentrations: 50 mM Hepes buffer pH 7.0, 0.01% BSA, 0.8 M KF, 20 mM EDTA, 42 nM Streptavidin-XL665 and 1:400 STK Ab Cryptate) and the plates are incubated overnight in the dark. The HTRF signal is read using an Envision plate reader.
(§3) In Table 1 selected JAK kinase inhibitory activities are listed with the following indicators: I: EC50<100 nM, II: 100 nM≦EC50≦500 nM and III: EC50>500 nM

[2] = molecular target: T2, JAK2 (catalytic domain, His-tag) (Homo sapiens, UniProt O60674); assay: JAK kinase assay (HTRF, phosphorylation of TK substrate-biotin), JAK2; settings: ATP at Km (4 μM)
T2 construct: All four purified enzymes contain only the catalytic domain; His (N); purchased Carna Biosciences, Inc; host or cells: baculovirus expression system
T2 sequence (O60674 849-1124 limits assumed): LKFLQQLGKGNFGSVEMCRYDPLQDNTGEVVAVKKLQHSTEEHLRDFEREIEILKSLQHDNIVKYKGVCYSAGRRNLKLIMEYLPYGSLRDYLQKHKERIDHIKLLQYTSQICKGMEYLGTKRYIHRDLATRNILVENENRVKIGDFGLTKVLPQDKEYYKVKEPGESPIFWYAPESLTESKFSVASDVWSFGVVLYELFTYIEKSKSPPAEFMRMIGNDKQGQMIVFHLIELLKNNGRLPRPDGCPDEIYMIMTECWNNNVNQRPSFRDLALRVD
Description: as §1, §2, §3

[3] = molecular target: T3, JAK3 (catalytic domain, His-tag) (Homo sapiens, UniProt P52333); assay: JAK kinase assay (HTRF, phosphorylation of TK substrate-biotin), JAK3; settings: ATP at Km (2 μM)
T3 construct: All four purified enzymes contain only the catalytic domain; His (N); purchased Carna Biosciences, Inc; host or cells: baculovirus expression system
T3 sequence (P52333 822-1111 limits assumed): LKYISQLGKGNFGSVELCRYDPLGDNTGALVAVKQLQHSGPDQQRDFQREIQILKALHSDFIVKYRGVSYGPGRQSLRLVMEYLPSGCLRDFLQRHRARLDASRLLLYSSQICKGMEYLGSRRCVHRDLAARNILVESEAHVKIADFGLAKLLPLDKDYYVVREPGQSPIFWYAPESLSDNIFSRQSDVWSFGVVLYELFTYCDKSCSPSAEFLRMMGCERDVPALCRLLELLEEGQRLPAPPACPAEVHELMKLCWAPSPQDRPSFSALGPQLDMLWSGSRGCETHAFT
Description: as §1, §2, §3

[4] = molecular target: T4, TYK2 (aa 871-1187, catalytic domain, GST-tag) (Homo sapiens, UniProt P29597); assay: JAK kinase assay (HTRF, phosphorylation of TK substrate-biotin), TYK2; settings: ATP at Km (13 μM)
T4 construct: JAK1 (aa 850-1154) and TYK2 (aa 871-1187) are expressed with an N-terminally fused GST-tag; GST (N); purchased Carna Biosciences, Inc; host or cells: baculovirus expression system
T4 sequence (P29597 871-1187): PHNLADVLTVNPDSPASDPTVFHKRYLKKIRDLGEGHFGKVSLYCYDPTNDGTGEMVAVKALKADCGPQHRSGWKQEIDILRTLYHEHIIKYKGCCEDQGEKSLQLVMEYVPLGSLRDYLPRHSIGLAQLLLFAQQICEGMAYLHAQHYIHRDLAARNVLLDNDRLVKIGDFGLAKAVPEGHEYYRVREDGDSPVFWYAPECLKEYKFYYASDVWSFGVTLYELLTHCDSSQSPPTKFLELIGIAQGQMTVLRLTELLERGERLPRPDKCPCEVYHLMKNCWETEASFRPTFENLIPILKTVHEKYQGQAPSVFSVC
Description: as §1, §2, §3

[5] = HTRF assay, read-out: JAK1 kinase inhibitory activity (EC50 indicator)
[6] = HTRF assay, read-out: JAK2 kinase inhibitory activity (EC50 indicator)
[7] = HTRF assay, read-out: JAK3 kinase inhibitory activity (EC50 indicator)
[8] = HTRF assay, read-out: TYK2 kinase inhibitory activity (EC50 indicator)
[9] = read-out: JAK1 kinase inhibitory activity (EC50 indicator)
[10] = read-out: JAK2 kinase inhibitory activity (EC50 indicator)
[11] = read-out: JAK3 kinase inhibitory activity (EC50 indicator)
[12] = read-out: TYK2 kinase inhibitory activity (EC50 indicator)
[13] = HTRF assay, read-out: JAK1 kinase inhibitory activity (EC50)
[14] = HTRF assay, read-out: JAK2 kinase inhibitory activity (EC50)
[15] = HTRF assay, read-out: JAK3 kinase inhibitory activity (EC50)
[16] = HTRF assay, read-out: TYK2 kinase inhibitory activity (EC50)

Structure (SMILES) | EC50 [1, 5] [µM] | EC50 [2, 6] [µM] | EC50 [3, 7] [µM] | EC50 [4, 8] [µM] | EC50 [1, 9] [µM] | EC50 [2, 10] [µM] | EC50 [3, 11] [µM] | EC50 [4, 12] [µM] | other results
O=C(CCC(F)(F)F)N1[C@@H]2CC[C@H]1CN(c1ncnc3[nH]ccc13)C2 [Example 181, 4,4,4-Trifluoro-1-[3-(7H-pyrrolo[2,3-d]pyrimidin-4-yl)-3,8-diaza-bicyclo[3.2.1]oct-8-yl]-butan-1-one] | – | – | – | – | < 0.1 | < 0.1 | 0.1 to 0.5 | 0.1 to 0.5 | –
N#CC1CCN(C(=O)C2(C(=O)N3CCN(c4ncnc5[nH]ccc45)CC34CC4)CC2)C1 (stereo not drawn) [Example 88, 1-{1-[7-(7H-Pyrrolo[2,3-d]pyrimidin-4-yl)-4,7-diaza-spiro[2.5]octane-4-carbonyl]-cyclopropanecarbonyl}-pyrrolidine-3-carbonitrile] | – | – | – | – | > 0.5 | 0.1 to 0.5 | > 0.5 | > 0.5 | –
N#Cc1cccc(C(=O)N2CCN(c3ncnc4[nH]ccc34)CC23CC3)c1 [Example 44, 3-[7-(7H-Pyrrolo[2,3-d]pyrimidin-4-yl)-4,7-diazaspiro[2.5]octane-4-carbonyl]benzonitrile] | – | – | – | – | < 0.1 | < 0.1 | < 0.1 | < 0.1 | –
NS(=O)(=O)c1ccc(CC(=O)N2CCN(c3ncnc4[nH]ccc34)CC23CC3)s1 [Example 195, 5-{2-Oxo-2-[7-(7H-pyrrolo[2,3-d]pyrimidin-4-yl)-4,7-diaza-spiro[2.5]oct-4-yl]-ethyl}-thiophene-2-sulfonic acid amide] | – | – | – | – | < 0.1 | < 0.1 | < 0.1 | 0.1 to 0.5 | –
NS(=O)(=O)c1ccc(OCC(=O)N2CCN(c3ncnc4[nH]ccc34)CC23CC3)c(F)c1 [Example 434, 3-Fluoro-4-{2-oxo-2-[7-(7H-pyrrolo[2,3-d]pyrimidin-4-yl)-4,7-diaza-spiro[2.5]oct-4-yl]-ethoxy}-benzenesulfonamide] | – | – | – | – | – | – | – | – | EC50 [1, 13]: < 0.1 µM; EC50 [2, 14]: < 0.1 µM; EC50 [3, 15]: < 0.1 µM; EC50 [4, 16]: < 0.1 µM
Cc1c(C(=O)N2CCN(c3ncnc4[nH]ccc34)CC23CC3)[nH]c2ccc(F)cc12 [Example 185, (5-Fluoro-3-methyl-1H-indol-2-yl)-[7-(7H-pyrrolo[2,3-d]pyrimidin-4-yl)-4,7-diaza-spiro[2.5]oct-4-yl]-methanone] | – | – | – | – | 0.1 to 0.5 | 0.1 to 0.5 | > 0.5 | > 0.5 | –
S=C(NC1CCCCC1)N1CCN(c2ncnc3[nH]ccc23)CC12CC2 [Example 437, 7-(7H-Pyrrolo[2,3-d]pyrimidin-4-yl)-4,7-diaza-spiro[2.5]octane-4-carbothioic acid cyclohexylamide] | – | – | – | – | – | – | – | – | EC50 [1, 13]: > 0.5 µM; EC50 [2, 14]: 0.1 to 0.5 µM; EC50 [3, 15]: > 0.5 µM; EC50 [4, 16]: > 0.5 µM
O=C(C1CCOC1)N1CCN(c2ncnc3[nH]ccc23)CC12CC2 (stereo not drawn) [Example 7, [7-(7H-Pyrrolo[2,3-d]pyrimidin-4-yl)-4,7-diazaspiro[2.5]oct-4-yl]-(tetrahydrofuran-3-yl)methanone] | – | – | – | – | 0.1 to 0.5 | < 0.1 | 0.1 to 0.5 | > 0.5 | –
O=C(c1ccccc1)N1C[C@@H]2C[C@H]1CN2c1ncnc2[nH]ccc12 (racemic) [Example 253, Phenyl-[5-(7H-pyrrolo[2,3-d]pyrimidin-4-yl)-2,5-diaza-bicyclo[2.2.1]hept-2-yl]-methanone] | > 0.5 | > 0.5 | > 0.5 | > 0.5 | – | – | – | – | –
N#CCc1ccc(C(=O)N2CCN(c3ncnc4[nH]ccc34)CC23CC3)cc1 [Example 18, {4-[7-(7H-Pyrrolo[2,3-d]pyrimidin-4-yl)-4,7-diazaspiro[2.5]octane-4-carbonyl]-phenyl}acetonitrile] | – | – | – | – | < 0.1 | < 0.1 | 0.1 to 0.5 | 0.1 to 0.5 | –

Continued, in another order:

EC50 [1, 5] [µM] | EC50 [2, 6] [µM] | EC50 [3, 7] [µM] | EC50 [4, 8] [µM] | EC50 [1, 9] [µM] | EC50 [2, 10] [µM] | EC50 [3, 11] [µM] | EC50 [4, 12] [µM] | Structure (SMILES) | other results
< 0.1 | < 0.1 | 0.1 to 0.5 | 0.1 to 0.5 | – | – | – | – | Cc1ccc2sc(C(=O)N3CCN(c4ncnc5[nH]ccc45)CC34CC4)cc2c1 [Example 297, (5-Methyl-benzo[b]thiophen-2-yl)-[7-(7H-pyrrolo[2,3-d]pyrimidin-4-yl)-4,7-diaza-spiro[2.5]oct-4-yl]-methanone] | –
> 0.5 | 0.1 to 0.5 | 0.1 to 0.5 | > 0.5 | – | – | – | – | COc1cnc2[nH]ccc2c1N1CCN(C(=O)c2cnccn2)C2(CC2)C1 [Example 285, [7-(5-Methoxy-1H-pyrrolo[2,3-b]pyridin-4-yl)-4,7-diaza-spiro[2.5]oct-4-yl]-pyrazin-2-yl-methanone] | –
> 0.5 | > 0.5 | > 0.5 | > 0.5 | – | – | – | – | COC(=O)c1cc2c(N3CCN(C(=O)Cc4ccc(C(F)(F)F)cc4)C4(CC4)C3)ncnc2[nH]1 [Example 338, 4-{4-[2-(4-Trifluoromethyl-phenyl)-acetyl]-4,7-diaza-spiro[2.5]oct-7-yl}-7H-pyrrolo[2,3-d]pyrimidine-6-carboxylic acid methyl ester] | –
< 0.1 | < 0.1 | 0.1 to 0.5 | 0.1 to 0.5 | – | – | – | – | NC(=O)c1ccc(C(=O)N2[C@@H]3CC[C@@H]2CN(c2ncnc4[nH]ccc24)C3)cc1 [Example 358, 4-[3-(7H-Pyrrolo[2,3-d]pyrimidin-4-yl)-3,8-diaza-bicyclo[3.2.1]octane-8-carbonyl]-benzamide] | –
< 0.1 | < 0.1 | < 0.1 | 0.1 to 0.5 | – | – | – | – | COc1cc(S(N)(=O)=O)ccc1C(=O)N1[C@@H]2CC[C@H]1CN(c1ncnc3[nH]ccc13)C2 [Example 393, 3-Methoxy-4-[3-(7H-pyrrolo[2,3-d]pyrimidin-4-yl)-3,8-diaza-bicyclo[3.2.1]octane-8-carbonyl]-benzenesulfonamide] | –
> 0.5 | > 0.5 | > 0.5 | > 0.5 | – | – | – | – | N#CC1(C(=O)N2C[C@@H]3C[C@H]2CN3c2ncnc3[nH]ccc23)CC1 [Example 270, 1-[5-(7H-Pyrrolo[2,3-d]pyrimidin-4-yl)-2,5-diaza-bicyclo[2.2.1]heptane-2-carbonyl]-cyclopropanecarbonitrile] | –
> 0.5 | > 0.5 | 0.1 to 0.5 | > 0.5 | – | – | – | – | N#CCCCC(=O)N1CCN(c2ncnc3[nH]cc(Cl)c23)CC12CC2 [Example 322, 5-[7-(5-Chloro-7H-pyrrolo[2,3-d]pyrimidin-4-yl)-4,7-diaza-spiro[2.5]oct-4-yl]-5-oxo-pentanenitrile] | –
< 0.1 | < 0.1 | < 0.1 | 0.1 to 0.5 | – | – | – | – | CNS(=O)(=O)c1csc(C(=O)N2CCN(c3ncnc4[nH]ccc34)CC23CC3)c1C [Example 376, 4-Methyl-5-[7-(7H-pyrrolo[2,3-d]pyrimidin-4-yl)-4,7-diaza-spiro[2.5]octane-4-carbonyl]-thiophene-3-sulfonic acid methylamide] | –
